The EC50 is the concentration that produces a half-maximal response.

This is an account of results in patent US12723063B2, “GIPR-agonist compounds” (Eli Lilly and Company, priority 2019, dated 2026).

*1 amine or outer side, *2 acyl side, *3 side chain or, on linkers, in order; H or OH if unused. Where a SMILES comes first, the peptide text is derived from it. Side-chain parts run from the residue outwards. [ ]: non-standard residue; d: D form. The star is where a group is joined. C20 diacid = O=C(O)CCCCCCCCCCCCCCCCCCC(=O)*; γGlu = O=C(O)[C@H](CCC(=O)[*:2])N[*:1]; αMeF = C[C@](N)(Cc1ccccc1)C(=O)O; 4Pal = N[C@@H](Cc1ccncc1)C(=O)O; αMeL = CC(C)C[C@](C)(N)C(=O)O; AEEA = NCCOCCOCC(=O)O; Aib = CC(C)(N)C(=O)O Some results are limits rather than exact numbers.

Assay in all cases: cAMP functional assay (HTRF) in HEK293 cells in presence of 0.1% casein
Format in all cases: cell-based
Background: TR-FRET usually uses a lanthanide donor and a delayed reading to cut background.

Experiment [1] addresses T1, human glucagon receptor (GcgR) (Homo sapiens, UniProt P47871).
T1 construct: expressed in transfected cells; host or cells: HEK293
The following applies: HEK293 cells expressing human GcgR, geometric mean, read-out: hGcgR cAMP Rel EC50 nM (SEM, n).

In experiment [2] the target is T2, human glucose-dependent insulinotropic peptide receptor (GIPR) (Homo sapiens, UniProt P48546).
T2 construct: expressed in transfected cells; host or cells: HEK293
T2 sequence (P48546 22-466): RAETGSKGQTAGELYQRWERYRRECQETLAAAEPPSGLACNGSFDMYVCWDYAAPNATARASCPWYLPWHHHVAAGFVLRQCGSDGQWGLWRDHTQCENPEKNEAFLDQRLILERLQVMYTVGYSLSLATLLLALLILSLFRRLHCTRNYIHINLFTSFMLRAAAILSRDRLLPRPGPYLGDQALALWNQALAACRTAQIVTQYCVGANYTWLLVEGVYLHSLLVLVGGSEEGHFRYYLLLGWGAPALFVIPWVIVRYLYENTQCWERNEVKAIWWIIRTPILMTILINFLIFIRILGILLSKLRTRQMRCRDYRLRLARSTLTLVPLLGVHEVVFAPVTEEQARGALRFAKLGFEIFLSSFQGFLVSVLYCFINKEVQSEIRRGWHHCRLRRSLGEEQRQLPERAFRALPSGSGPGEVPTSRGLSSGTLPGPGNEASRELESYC
The following applies: HEK293 cells expressing human GIPR, geometric mean, read-out: hGIPR cAMP Rel EC50 nM (SEM, n).

Experiment [3] deals with T3, human GLP-1 receptor (GLP-1R) (Homo sapiens, UniProt P43220).
T3 construct: expressed in transfected cells; host or cells: HEK293
T3 sequence (P43220 24-463): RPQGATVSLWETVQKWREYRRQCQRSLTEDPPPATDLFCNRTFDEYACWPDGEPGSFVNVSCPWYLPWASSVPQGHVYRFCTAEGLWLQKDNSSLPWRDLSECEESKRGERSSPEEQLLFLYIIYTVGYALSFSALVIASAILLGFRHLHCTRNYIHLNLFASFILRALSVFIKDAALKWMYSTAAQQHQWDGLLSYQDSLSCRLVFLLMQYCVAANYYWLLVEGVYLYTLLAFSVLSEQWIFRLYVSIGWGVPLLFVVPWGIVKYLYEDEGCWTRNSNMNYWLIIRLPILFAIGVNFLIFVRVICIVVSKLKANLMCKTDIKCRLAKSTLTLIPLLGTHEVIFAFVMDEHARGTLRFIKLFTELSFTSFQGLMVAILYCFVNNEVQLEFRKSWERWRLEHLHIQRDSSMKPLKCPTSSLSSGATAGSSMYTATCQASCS
The following applies: HEK293 cells expressing human GLP-1R, geometric mean, read-out: hGLP1R cAMP Rel EC50 nM (SEM, n).

T1 sequence (P47871 26-477): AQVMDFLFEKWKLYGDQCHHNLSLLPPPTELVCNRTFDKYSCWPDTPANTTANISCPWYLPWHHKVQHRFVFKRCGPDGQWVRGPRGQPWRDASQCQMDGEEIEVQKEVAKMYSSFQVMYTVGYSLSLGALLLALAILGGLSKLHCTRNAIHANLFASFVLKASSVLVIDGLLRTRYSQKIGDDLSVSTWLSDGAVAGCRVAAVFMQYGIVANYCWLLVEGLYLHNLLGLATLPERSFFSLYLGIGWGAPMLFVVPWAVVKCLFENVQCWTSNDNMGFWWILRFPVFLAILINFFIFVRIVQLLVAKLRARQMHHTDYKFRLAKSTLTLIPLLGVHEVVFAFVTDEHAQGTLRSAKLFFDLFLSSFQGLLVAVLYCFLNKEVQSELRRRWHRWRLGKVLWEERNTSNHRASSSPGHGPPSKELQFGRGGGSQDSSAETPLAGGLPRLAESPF

In the case of `CC[C@H](C)[C@H](NC(=O)[C@H](CO)NC(=O)[C@H](Cc1ccc(O)cc1)NC(=O)[C@H](CC(=O)O)NC(=O)[C@H](CO)NC(=O)[C@@H](NC(=O)[C@](C)(Cc1ccccc1)NC(=O)[C@@H](NC(=O)CNC(=O)[C@H](CCC(=O)O)NC(=O)C(C)(C)NC(=O)[C@@H](N)Cc1ccc(O)cc1)[C@@H](C)O)[C@@H](C)CC)C(=O)N[C@@](C)(CC(C)C)C(=O)N[C@@H](CC(C)C)C(=O)N[C@@H](CC(=O)O)C(=O)N[C@@H](CCCCN)C(=O)N[C@@H](CCCCNC(=O)COCCOCCNC(=O)COCCOCCNC(=O)CC[C@H](NC(=O)CCCCCCCCCCCCCCCCCCC(=O)O)C(=O)O)C(=O)N[C@@H](Cc1c[nH]cn1)C(=O)N[C@@H](CCC(N)=O)C(=O)NC(C)(C)C(=O)N[C@@H](CCC(=O)O)C(=O)N[C@@H](Cc1ccccc1)C(=O)N[C@H](C(=O)N[C@@H](CCC(=O)O)C(=O)N[C@@H](Cc1ccncc1)C(=O)N[C@@H](CC(C)C)C(=O)N[C@@H](CC(C)C)C(=O)N[C@@H](C)C(=O)N[C@H](C(=O)NCC(=O)N1CCC[C@H]1C(=O)N[C@@H](CO)C(=O)N[C@@H](CO)C(=O)NCC(=O)N[C@@H](C)C(=O)N1CCC[C@H]1C(=O)N1CCC[C@H]1C(=O)N1CCC[C@H]1C(=O)N[C@@H](CO)C(N)=O)[C@@H](C)O)C(C)C` [Example 61] (H-Y[Aib]EGT[αMeF]ISDYSI[αMeL]LDKK([AEEA-AEEA-γGlu-C20 diacid])HQ[Aib]EFVE[4Pal]LLATGPSSGAPPPS-NH2), the EC50 was above 5000 nM in experiment [1], 0.0167 nM in experiment [2] and 192 nM in experiment [3].
On the same counts, the results for `CC[C@H](C)[C@H](NC(=O)[C@H](CO)NC(=O)[C@H](Cc1ccc(O)cc1)NC(=O)[C@H](CC(=O)O)NC(=O)[C@H](CO)NC(=O)[C@@H](NC(=O)[C@](C)(Cc1ccccc1)NC(=O)[C@@H](NC(=O)CNC(=O)[C@H](CCC(=O)O)NC(=O)C(C)(C)NC(=O)[C@@H](N)Cc1ccc(O)cc1)[C@@H](C)O)[C@@H](C)CC)C(=O)N[C@@](C)(CC(C)C)C(=O)N[C@@H](CC(C)C)C(=O)N[C@@H](CC(=O)O)C(=O)N[C@@H](CCCCN)C(=O)N[C@@H](CCCCNC(=O)COCCOCCNC(=O)COCCOCCNC(=O)CC[C@H](NC(=O)CCCCCCCCCCCCCCCCCCC(=O)O)C(=O)O)C(=O)N[C@@H](Cc1c[nH]cn1)C(=O)N[C@@H](CCC(N)=O)C(=O)NC(C)(C)C(=O)N[C@@H](CCC(=O)O)C(=O)N[C@@H](Cc1ccccc1)C(=O)N[C@H](C(=O)N[C@@H](CCC(=O)O)C(=O)N[C@@H](Cc1ccncc1)C(=O)N[C@@H](CC(C)C)C(=O)N[C@@H](CC(C)C)C(=O)N[C@@H](C)C(=O)N[C@@H](C)C(=O)NCC(=O)N1CCC[C@H]1C(=O)N[C@@H](CO)C(=O)N[C@@H](CO)C(=O)NCC(=O)N[C@@H](C)C(=O)N1CCC[C@H]1C(=O)N1CCC[C@H]1C(=O)N1CCC[C@H]1C(=O)N[C@@H](CO)C(N)=O)C(C)C` [Example 62] (H-Y[Aib]EGT[αMeF]ISDYSI[αMeL]LDKK([AEEA-AEEA-γGlu-C20 diacid])HQ[Aib]EFVE[4Pal]LLAAGPSSGAPPPS-NH2) are above 5000 nM, 0.0116 nM and 58.2 nM.
On the same counts, the results for `CC[C@H](C)[C@H](NC(=O)[C@H](Cc1ccccc1)NC(=O)[C@@H](NC(=O)CNC(=O)[C@H](CCC(=O)O)NC(=O)C(C)(C)NC(=O)[C@@H](N)Cc1ccc(O)cc1)[C@@H](C)O)C(=O)N[C@@H](CO)C(=O)N[C@@H](CC(=O)O)C(=O)N[C@@H](Cc1ccc(O)cc1)C(=O)N[C@@H](CO)C(=O)N[C@H](C(=O)N[C@@](C)(CC(C)C)C(=O)N[C@@H](CC(C)C)C(=O)N[C@@H](CC(=O)O)C(=O)N[C@@H](CCCCN)C(=O)N[C@@H](CCCCNC(=O)COCCOCCNC(=O)COCCOCCNC(=O)CC[C@H](NC(=O)CCCCCCCCCCCCCCCCCCC(=O)O)C(=O)O)C(=O)N[C@@H](Cc1c[nH]cn1)C(=O)N[C@@H](CCC(N)=O)C(=O)NC(C)(C)C(=O)N[C@@H](CCC(=O)O)C(=O)N[C@@H](Cc1ccccc1)C(=O)N[C@H](C(=O)N[C@@H](CCC(=O)O)C(=O)N[C@@H](Cc1ccc(O)cc1)C(=O)N[C@@H](CC(C)C)C(=O)N[C@@H](CC(C)C)C(=O)N[C@@H](CCC(=O)O)C(=O)N[C@@H](CCC(N)=O)C(=O)NCC(=O)N1CCC[C@H]1C(=O)N[C@@H](CO)C(=O)N[C@@H](CO)C(=O)NCC(=O)N[C@@H](C)C(=O)N1CCC[C@H]1C(=O)N1CCC[C@H]1C(=O)N1CCC[C@H]1C(=O)N[C@@H](CO)C(N)=O)C(C)C)[C@@H](C)CC` [Example 63] (H-Y[Aib]EGTFISDYSI[αMeL]LDKK([AEEA-AEEA-γGlu-C20 diacid])HQ[Aib]EFVEYLLEQGPSSGAPPPS-NH2) are 1170 nM, 0.0398 nM and above 5000 nM.
On the same counts, the results for `CC[C@H](C)[C@H](NC(=O)[C@H](Cc1ccccc1)NC(=O)[C@@H](NC(=O)CNC(=O)[C@H](CCC(=O)O)NC(=O)C(C)(C)NC(=O)[C@@H](N)Cc1ccc(O)cc1)[C@@H](C)O)C(=O)N[C@@H](CO)C(=O)N[C@@H](CC(=O)O)C(=O)N[C@@H](Cc1ccc(O)cc1)C(=O)N[C@@H](CO)C(=O)N[C@H](C(=O)N[C@@](C)(CC(C)C)C(=O)N[C@@H](CC(C)C)C(=O)N[C@@H](CC(=O)O)C(=O)N[C@@H](CCCCN)C(=O)N[C@@H](CCCCNC(=O)COCCOCCNC(=O)COCCOCCNC(=O)CC[C@H](NC(=O)CCCCCCCCCCCCCCCCCCC(=O)O)C(=O)O)C(=O)N[C@@H](Cc1c[nH]cn1)C(=O)N[C@@H](CCC(N)=O)C(=O)NC(C)(C)C(=O)N[C@@H](CCC(=O)O)C(=O)N[C@@H](Cc1ccccc1)C(=O)N[C@H](C(=O)N[C@@H](CCC(=O)O)C(=O)N[C@@H](Cc1ccc(O)cc1)C(=O)N[C@@H](CC(C)C)C(=O)N[C@@H](CC(C)C)C(=O)N[C@@H](CCC(=O)O)C(=O)N[C@H](C(=O)NCC(=O)N1CCC[C@H]1C(=O)N[C@@H](CO)C(=O)N[C@@H](CO)C(=O)NCC(=O)N[C@@H](C)C(=O)N1CCC[C@H]1C(=O)N1CCC[C@H]1C(=O)N1CCC[C@H]1C(=O)N[C@@H](CO)C(N)=O)[C@@H](C)O)C(C)C)[C@@H](C)CC` [Example 64] (H-Y[Aib]EGTFISDYSI[αMeL]LDKK([AEEA-AEEA-γGlu-C20 diacid])HQ[Aib]EFVEYLLETGPSSGAPPPS-NH2) are 3070 nM, 0.0448 nM and above 5000 nM.
In the case of `CC[C@H](C)[C@H](NC(=O)[C@H](Cc1ccccc1)NC(=O)[C@@H](NC(=O)CNC(=O)[C@H](CCC(=O)O)NC(=O)C(C)(C)NC(=O)[C@@H](N)Cc1ccc(O)cc1)[C@@H](C)O)C(=O)N[C@@H](CO)C(=O)N[C@@H](CC(=O)O)C(=O)N[C@@H](Cc1ccc(O)cc1)C(=O)N[C@@H](CO)C(=O)N[C@H](C(=O)N[C@@](C)(CC(C)C)C(=O)N[C@@H](CC(C)C)C(=O)N[C@@H](CC(=O)O)C(=O)N[C@@H](CCCCN)C(=O)N[C@@H](CCCCNC(=O)COCCOCCNC(=O)COCCOCCNC(=O)CC[C@H](NC(=O)CCCCCCCCCCCCCCCCCCC(=O)O)C(=O)O)C(=O)N[C@@H](Cc1c[nH]cn1)C(=O)N[C@@H](CCC(N)=O)C(=O)NC(C)(C)C(=O)N[C@@H](CCC(=O)O)C(=O)N[C@@H](Cc1ccccc1)C(=O)N[C@H](C(=O)N[C@@H](CCC(=O)O)C(=O)N[C@@H](Cc1ccc(O)cc1)C(=O)N[C@@H](CC(C)C)C(=O)N[C@@H](CC(C)C)C(=O)N[C@@H](CCC(=O)O)C(=O)N[C@@H](C)C(=O)NCC(=O)N1CCC[C@H]1C(=O)N[C@@H](CO)C(=O)N[C@@H](CO)C(=O)NCC(=O)N[C@@H](C)C(=O)N1CCC[C@H]1C(=O)N1CCC[C@H]1C(=O)N1CCC[C@H]1C(=O)N[C@@H](CO)C(N)=O)C(C)C)[C@@H](C)CC` [Example 65] (H-Y[Aib]EGTFISDYSI[αMeL]LDKK([AEEA-AEEA-γGlu-C20 diacid])HQ[Aib]EFVEYLLEAGPSSGAPPPS-NH2), the EC50 in experiment [1] is 850 nM; in experiment [2], 0.0346 nM; in experiment [3] it was above 5000 nM.
